Reference: patent publication US12233107B2, “GHRH or analogues thereof for use in treatment of hepatic disease” (The General Hospital Corporation, priority 2019, dated 2025)
Blank lines part the entries; values can stand above or below the compound they belong to.

Columns and labels:
[1] = system: HIV-infected subjects with NAFL/NASH; settings: in vivo
[2] = system: HIV-infected subjects with NAFL/NASH; parameters: species or system human; settings: in vivo
Experimental: Participants at MGH also underwent a euglycemic hyperinsulinemic clamp procedure to assess insulin sensitivity. After a 14-hour overnight fast, a low-dose (insulin 20 mU/m^2/min) clamp for 2 hours was followed by a high-dose (insulin 80 mU/m^2/min) clamp for 2 hours as previously described (Braun L R, et al. Effects of Pitavastatin on Insulin Sensitivity and Liver Fat: A Randomized Clinical Trial. J Clin Endocrinol Metab 2018; 103:4176-86). Insulin stimulated glucose disposal (M) were calculated during the last 20 minutes of low-dose and high-dose clamp using the DeFronzo method (DeFronzo R A, Tobin J D, Andres R. Am J Physiol 1979; 237:E214-23) as the primary indices of hepatic and whole-body insulin sensitivity, respectively.

[3] = system: HIV-infected subjects with NAFL/NASH; parameters: species or system human; settings: in vivo; remark: listed apart in the source
Experimental: The study consisted of a 12-month, double-blind treatment phase during which participants were randomized in a 1:1 ratio receive to tesamorelin 2 mg daily or identical placebo, followed by a 6-month open label phase during which all participants receive tesamorelin. The pre-specified primary analysis, comparing changes over twelve months in tesamorelin vs. placebo treatment, is reported here. Randomization was stratified by site (NIH and MGH) and vitamin E use, defined as consistent use of ≥400 international units daily. The randomization list was prepared by the study statistician using a permuted block algorithm within each stratum with randomly varying block sizes. […] IGF-1 Z-scores were monitored throughout the study by an independent endocrinologist at MGH otherwise unaffiliated with the study. […]
Laboratory analyses were conducted using standard methodologies. Clinical labs were measured at the NIH Clinical Laboratory and, for MGH, at LabCorp and Quest. IGF-1 was measured centrally at Quest Laboratories. C-reactive protein was measured using electrochemiluminescense (Meso Scale Discovery, Rockville, MD), and adiponectin was measured using ELISA (R&D Systems, Minneapolis, MN).
Per the pre-specified analysis plan, change in HFF was assessed by random intercept mixed effects modeling using restricted maximum likelihood to assess the effect estimate for the time×randomization interaction. […]

[4] = system: patients with primary NAFLD; settings: cited from earlier work
[5] = system: patients with HIV-associated NAFLD; settings: Ajmera et al., Hepatology 2019; cited from earlier work
[6] = system: NASH in the general population; settings: cited from earlier work

Arthralgia [1]: 3
Hyperglycemia [1]: 12
Injection site bruising [1]: 11
Injection site erythema [1]: 3
Injection site stinging [1]: 4
Myalgia [1]: 2
Other infection [1]: 7
Other injection site complaints [1]: 10
Paresthesia [1]: 2
URI [1]: 5
discontinuations for hyperglycemia [1]: two
treatment effect for high-dose M (insulin stimulated glucose uptake, high-dose clamp) [2]: −0.9
treatment effect for low-dose M (glucose infusion rate, low-dose clamp) [2]: 0.0 mg/kg/min
fasting glucose [3]: did not significantly affect
hemoglobin A1c [3]: did not significantly affect
Compound: CC/C=C/CC(=O)N[C@@H](Cc1ccc(O)cc1)C(=O)N[C@@H](C)C(=O)N[C@@H](CC(=O)O)C(=O)N[C@@H](C)C(=O)N[C@H](C(=O)N[C@@H](Cc1ccccc1)C(=O)N[C@H](C(=O)N[C@@H](CC(N)=O)C(=O)N[C@@H](CO)C(=O)N[C@@H](Cc1ccc(O)cc1)C(=O)N[C@@H](CCCNC(=N)N)C(=O)N[C@@H](CCCCN)C(=O)N[C@H](C(=O)N[C@@H](CC(C)C)C(=O)NCC(=O)N[C@@H](CCC(N)=O)C(=O)N[C@@H](CC(C)C)C(=O)N[C@@H](CO)C(=O)N[C@@H](C)C(=O)N[C@@H](CCCNC(=N)N)C(=O)N[C@@H](CCCCN)C(=O)N[C@@H](CC(C)C)C(=O)N[C@@H](CC(C)C)C(=O)N[C@@H](CCC(N)=O)C(=O)N[C@@H](CC(=O)O)C(=O)N[C@H](C(=O)N[C@@H](CCSC)C(=O)N[C@@H](CO)C(=O)N[C@@H](CCCNC(=N)N)C(=O)N[C@@H](CCC(N)=O)C(=O)N[C@@H](CCC(N)=O)C(=O)NCC(=O)N[C@@H](CCC(=O)O)C(=O)N[C@@H](CO)C(=O)N[C@@H](CC(N)=O)C(=O)N[C@@H](CCC(N)=O)C(=O)N[C@@H](CCC(=O)O)C(=O)N[C@@H](CCCNC(=N)N)C(=O)NCC(=O)N[C@@H](C)C(=O)N[C@@H](CCCNC(=N)N)C(=O)N[C@@H](C)C(=O)N[C@@H](CCCNC(=N)N)C(=O)N[C@@H](CC(C)C)C(N)=O)[C@@H](C)CC)C(C)C)[C@@H](C)O)[C@@H](C)CC [Tesamorelin, trans-3-hexenoyl-GHRH(1-44)-NH2]
Any adverse event [1]: 29
Other adverse events [1]: 25
relation of serious adverse events to study drug [1]: None were judged as related to study drug

Compound: CCCCCCCCCCCCCCCCCCCC(=O)N[C@H]1CC[C@@]2(C)[C@@H](C1)C[C@@H](O)[C@@H]1[C@@H]2C[C@H](O)[C@]2(C)[C@@H]([C@H](C)CCC(=O)O)CC[C@@H]12 [aramchol]
hepatic-fat content [4]: reduce
effect in patients with HIV-associated NAFLD [5]: no significant effect

Compound: Vitamin E
histological features of NASH [6]: improve
